Results from ChEMBL document CHEMBL1759870, “Identification, structural properties and chelating capacity of miltipolone as a broad-spectrum inhibitor to cancer cells” (Eur J Med Chem, 2011).
Calls of active or inactive are those of the source.

What was measured:
HT-1080 [1] = experiment: Antiproliferative activity against human HT1080 cells after 96 hrs by MTT assay; type: functional, cell-based; conditions: HT-1080, 96 h
HeLa [2] = experiment: Antiproliferative activity against human HeLa cells at 2 uM after 96 hrs by MTT assay in presence of manganese ion; type: functional, cell-based
NCI-N87 [3] = experiment: Antiproliferative activity against human NCI-N87 cells at 2 uM after 96 hrs by MTT assay in presence of manganese ion; type: functional, cell-based
A549 [4] = experiment: Antiproliferative activity against human A549 cells at 2 uM after 96 hrs by MTT assay in presence of ferric ion; type: functional, cell-based
MCF7 [5] = experiment: Antiproliferative activity against human MCF7 cells at 2 uM after 96 hrs by MTT assay in presence of 1 uM of ferrous ion; type: functional, cell-based
HepG2 [6] = experiment: Antiproliferative activity against human HepG2 cells at 2 uM after 96 hrs by MTT assay in presence of manganese ion; type: functional, cell-based
[7] = Metal chelating activity of the compound assessed as zinc complex formation in doble-distiled water by UV-vis spectrometry; type: functional
A549 [8] = experiment: Antiproliferative activity against human A549 cells after 96 hrs by MTT assay; type: functional, cell-based; conditions: A549, 96 h
NCI-N87 [9] = experiment: Antiproliferative activity against human NCI-N87 cells at 2 uM after 96 hrs by MTT assay in presence of ferrous ion; type: functional, cell-based
Bel-7402 [10] = experiment: Antiproliferative activity against human Bel7402 cells at 2 uM after 96 hrs by MTT assay in presence of zinc ion; type: functional, cell-based
MCF7 [11] = experiment: Antiproliferative activity against human MCF7 cells at 2 uM after 96 hrs by MTT assay in presence of zinc ion; type: functional, cell-based
NCI-N87 [12] = experiment: Antiproliferative activity against human NCI-N87 cells at 2 uM after 96 hrs by MTT assay in presence of zinc ion; type: functional, cell-based
HeLa [13] = experiment: Antiproliferative activity against human HeLa cells at 2 uM after 96 hrs by MTT assay in presence of cobalt ion; type: functional, cell-based
A-375 [14] = experiment: Antiproliferative activity against human A375 cells after 96 hrs by MTT assay; type: functional, cell-based; conditions: A-375, 96 h
Bel-7402 [15] = experiment: Antiproliferative activity against human Bel7402 cells at 2 uM after 96 hrs by MTT assay in presence of manganese ion; type: functional, cell-based
A-375 [16] = experiment: Antiproliferative activity against human A375 cells at 2 uM after 96 hrs by MTT assay in presence of 1 uM of ferrous ion; type: functional, cell-based
MCF7 [17] = experiment: Antiproliferative activity against human MCF7 cells at 2 uM after 96 hrs by MTT assay in presence of ferrous ion; type: functional, cell-based
Bel-7402 [18] = experiment: Antiproliferative activity against human Bel7402 cells after 96 hrs by MTT assay; type: functional, cell-based; conditions: Bel-7402, 96 h
HeLa [19] = experiment: Antiproliferative activity against human HeLa cells at 2 uM after 96 hrs by MTT assay in presence of ferrous ion; type: functional, cell-based
PANC-1 [20] = experiment: Antiproliferative activity against human PANC1 cells at 2 uM after 96 hrs by MTT assay in presence of ferric ion; type: functional, cell-based
HUVEC = experiment: Antiproliferative activity against human HUVEC cells after 96 hrs by MTT assay; type: cell-based
HeLa [21] = experiment: Antiproliferative activity against human HeLa cells at 2 uM after 96 hrs by MTT assay in presence of 1 uM of ferrous ion; type: functional, cell-based
HepG2 [22] = experiment: Antiproliferative activity against human HepG2 cells at 2 uM after 96 hrs by MTT assay in presence of 1 uM of ferrous ion; type: functional, cell-based
HT-1080 [23] = experiment: Antiproliferative activity against human HT1080 cells at 2 uM after 96 hrs by MTT assay in presence of cobalt ion; type: functional, cell-based
PANC-1 [24] = experiment: Antiproliferative activity against human PANC1 cells at 2 uM after 96 hrs by MTT assay in presence of zinc ion; type: functional, cell-based
Jurkat = experiment: Antiproliferative activity against human Jurkat cells at 2 uM after 96 hrs by MTT assay in presence of manganese ion; type: functional, cell-based
MCF7 [25] = experiment: Antiproliferative activity against human MCF7 cells at 2 uM after 96 hrs by MTT assay in presence of cobalt ion; type: functional, cell-based
A-375 [26] = experiment: Antiproliferative activity against human A375 cells at 2 uM after 96 hrs by MTT assay in presence of ferrous ion; type: functional, cell-based
NCI-N87 [27] = experiment: Antiproliferative activity against human NCI-N87 cells at 2 uM after 96 hrs by MTT assay in presence of 1 uM of ferrous ion; type: functional, cell-based
A-375 [28] = experiment: Antiproliferative activity against human A375 cells at 2 uM after 96 hrs by MTT assay in presence of cobalt ion; type: functional, cell-based
HT-1080 [29] = experiment: Antiproliferative activity against human HT1080 cells at 2 uM after 96 hrs by MTT assay in presence of zinc ion; type: functional, cell-based
MCF7 [30] = experiment: Antiproliferative activity against human MCF7 cells at 2 uM after 96 hrs by MTT assay in presence of manganese ion; type: functional, cell-based
A-375 [31] = experiment: Antiproliferative activity against human A375 cells at 2 uM after 96 hrs by MTT assay in presence of manganese ion; type: functional, cell-based
HT-1080 [32] = experiment: Antiproliferative activity against human HT1080 cells at 2 uM after 96 hrs by MTT assay in presence of manganese ion; type: functional, cell-based
[33] = Metal chelating activity of the compound assessed as manganese complex formation in doble-distiled water by UV-vis spectrometry; type: functional
Bel-7402 [34] = experiment: Antiproliferative activity against human Bel7402 cells at 2 uM after 96 hrs by MTT assay in presence of ferrous ion; type: functional, cell-based
HT-1080 [35] = experiment: Antiproliferative activity against human HT1080 cells at 2 uM after 96 hrs by MTT assay in presence of 1 uM of ferrous ion; type: functional, cell-based
HepG2 [36] = experiment: Antiproliferative activity against human HepG2 cells at 2 uM after 96 hrs by MTT assay in presence of ferrous ion; type: functional, cell-based

Cc1cc2c(cc(O)c1=O)[C@@]13CCCC(C)(C)[C@@H]1C[C@@H]2OC3 [MILTIPOLONE]
20000 nM: IC50 (HUVEC)
1360 nM: IC50 (HT-1080 [1])
active: Activity (HeLa [2]) | Activity (NCI-N87 [3]) | Activity (A549 [4]) | Activity (HepG2 [6]) | Activity [7] | Activity (Bel-7402 [10]) | Activity (MCF7 [11]) | Activity (NCI-N87 [12]) | Activity (HeLa [13]) | Activity (Bel-7402 [15]) | Activity (PANC-1 [20]) | Activity (HT-1080 [23]) | Activity (PANC-1 [24]) | Activity (Jurkat) | Activity (MCF7 [25]) | Activity (A-375 [28]) | Activity (HT-1080 [29]) | Activity (MCF7 [30]) | Activity (A-375 [31]) | Activity (HT-1080 [32]) | Activity [33]
1920 nM: IC50 (A549 [8])
900 nM: IC50 (Bel-7402 [18])
3500 nM: IC50 (A-375 [14])
inactive: Activity (MCF7 [5]) | Activity (NCI-N87 [9]) | Activity (A-375 [16]) | Activity (MCF7 [17]) | Activity (HeLa [19]) | Activity (HeLa [21]) | Activity (HepG2 [22]) | Activity (A-375 [26]) | Activity (NCI-N87 [27]) | Activity (Bel-7402 [34]) | Activity (HT-1080 [35]) | Activity (HepG2 [36])
